Reference: PubChem BioAssay AID248 (DTP/NCI, 2004)
Toxic doses and inconclusive results are not listed. No stated cut-off is given here; in the data, active means T/C of 150% or more; inactive means T/C below 125%. Peptide text beside a SMILES is read from it. * marks the point of attachment. Trt = c1ccc(C(c2ccccc2)(c2ccccc2)*)cc1; Boc = CC(C)(C)OC(=O)*

Test system: L1210 leukemia ip in BDF1 mice, survival T/C
Experiment: NCI In Vivo Anticancer Drug Screen. Data for tumor model L1210 Leukemia (intraperitoneal) in B6D2F1 (BDF1) mice
Conditions: endpoint: mean survival time, higher = longer survival
In short: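 Each compound was tested against a transplantable tumor grown in mice. The endpoint was survival, with treated animals benchmarked against vehicle controls as a simple ratio.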

[1] = dose: 200.0 mg/kg/injection, schedule: Q01DX001 (ip), vehicle: carboxymethylcellulose (CMC)
[2] = dose: 100.0 mg/kg/injection, schedule: Q01DX001 (ip), vehicle: saline with Tween-80
[3] = dose: 200.0 mg/kg/injection, schedule: Q01DX001 (ip), vehicle: saline with Tween-80
[4] = dose: 400.0 mg/kg/injection, schedule: Q01DX001 (ip), vehicle: saline with Tween-80
[5] = dose: 100.0 mg/kg/injection, schedule: Q01DX001 (ip), vehicle: carboxymethylcellulose (CMC)
[6] = dose: 100.0 mg/kg/injection, schedule: Q04DX003 (ip), vehicle: saline with Tween-80
[7] = dose: 400.0 mg/kg/injection, schedule: Q01DX001 (ip), vehicle: carboxymethylcellulose (CMC)
[8] = dose: 50.0 mg/kg/injection, schedule: Q01DX001 (ip), vehicle: saline
[9] = dose: 100.0 mg/kg/injection, schedule: Q01DX001 (ip), vehicle: saline
[10] = dose: 200.0 mg/kg/injection, schedule: Q01DX001 (ip), vehicle: saline
[11] = dose: 400.0 mg/kg/injection, schedule: Q01DX001 (ip), vehicle: saline
[12] = dose: 25.0 mg/kg/injection, schedule: Q04DX003 (ip), vehicle: saline with Tween-80
[13] = dose: 50.0 mg/kg/injection, schedule: Q04DX003 (ip), vehicle: saline with Tween-80

Measured: T/C

C=CCOP1(=O)OCC2OC(n3cnc4c(N)ncnc43)C(O)C2O1 (stereo not given)
inactive: dose: 50.0 mg/kg/injection, schedule: Q01DX009 (ip), vehicle: saline 98 % of control | dose: 100.0 mg/kg/injection, schedule: Q01DX005 (ip), vehicle: saline 100 % of control | dose: 100.0 mg/kg/injection, schedule: Q01DX009 (ip), vehicle: saline 89 % of control | dose: 200.0 mg/kg/injection, schedule: Q01DX005 (ip), vehicle: saline 92 % of control | dose: 200.0 mg/kg/injection, schedule: Q01DX009 (ip), vehicle: saline 97 % of control

O=C(CCCc1ccc(N(CCCl)CCCl)cc1)Nc1ccccc1
inactive: dose: 4.0 mg/kg/injection, schedule: Q12HX018 (ip), vehicle: Klucel (hydroxypropylcellulose) (HPC) 102 % of control | dose: 4.0 mg/kg/injection, schedule: Q12HX018 (ip), vehicle: other 103 % of control | dose: 6.0 mg/kg/injection, schedule: Q12HX018 (ip), vehicle: other 101 % of control | dose: 8.0 mg/kg/injection, schedule: Q12HX018 (ip), vehicle: Klucel (hydroxypropylcellulose) (HPC) 109 % of control | dose: 8.0 mg/kg/injection, schedule: Q12HX018 (ip), vehicle: other 103 % of control | dose: 16.0 mg/kg/injection, schedule: Q12HX018 (ip), vehicle: Klucel (hydroxypropylcellulose) (HPC) 104 % of control

CCOC(C)c1ccccc1 (stereo not given)
inactive: [1] 95 % of control

O=Cc1[nH]c(=S)[nH]c(=O)c1Cc1cc([N+](=O)[O-])ccc1O
inactive: [2] 93 % of control | [3] 104 % of control | [4] 95 % of control

O=c1ccc2cc3oc(=O)ccc3cc2o1
inactive: [2] 90 % of control | [3] 97 % of control | [4] 90 % of control

CCOC(=O)Nc1cc2c(c(NC(=O)OCC)n1)N=C(CN(C)c1ccccc1)CN2
inactive: dose: 12.5 mg/kg/injection, schedule: Q01DX009 (ip), vehicle: saline with Tween-80 100 % of control | dose: 25.0 mg/kg/injection, schedule: Q01DX009 (ip), vehicle: saline with Tween-80 105 % of control | dose: 50.0 mg/kg/injection, schedule: Q01DX009 (ip), vehicle: saline with Tween-80 114 % of control | dose: 88.0 mg/kg/injection, schedule: Q01DX001 (ip), vehicle: saline with Tween-80 105 % of control | [2] 106 % of control | dose: 133.0 mg/kg/injection, schedule: Q01DX001 (ip), vehicle: saline with Tween-80 97 % of control | [3] 113 % of control

[NH-]c1ccccc1C(=O)O.[NH-]c1ccccc1C(=O)O.[Zn+2]
inactive: dose: 12.5 mg/kg/injection, schedule: Q01DX009 (ip), vehicle: Klucel (hydroxypropylcellulose) (HPC) 98 % of control | dose: 25.0 mg/kg/injection, schedule: Q01DX009 (ip), vehicle: Klucel (hydroxypropylcellulose) (HPC) 97 % of control | dose: 25.0 mg/kg/injection, schedule: Q04DX003 (ip), vehicle: Klucel (hydroxypropylcellulose) (HPC) 97 % of control | dose: 50.0 mg/kg/injection, schedule: Q01DX009 (ip), vehicle: Klucel (hydroxypropylcellulose) (HPC) 93 % of control | dose: 50.0 mg/kg/injection, schedule: Q04DX003 (ip), vehicle: Klucel (hydroxypropylcellulose) (HPC) 90 % of control | dose: 100.0 mg/kg/injection, schedule: Q04DX003 (ip), vehicle: Klucel (hydroxypropylcellulose) (HPC) 94 % of control

CC(=Nc1ccc(Cl)cc1)Nc1ccc(Cl)cc1
inactive: dose: 62.5 mg/kg/injection, schedule: Q01DX009 (ip), vehicle: Klucel (hydroxypropylcellulose) (HPC) 92 % of control | dose: 125.0 mg/kg/injection, schedule: Q01DX009 (ip), vehicle: Klucel (hydroxypropylcellulose) (HPC) 96 % of control | dose: 250.0 mg/kg/injection, schedule: Q01DX009 (ip), vehicle: Klucel (hydroxypropylcellulose) (HPC) 100 % of control

CN(C)c1ccc2c(c1)N=Nc1cc(N(C)C)ccc1C2
inactive: dose: 100.0 mg/kg/injection, schedule: Q01DX001 (ip), vehicle: Klucel (hydroxypropylcellulose) (HPC) 87 % of control | dose: 200.0 mg/kg/injection, schedule: Q01DX001 (ip), vehicle: Klucel (hydroxypropylcellulose) (HPC) 91 % of control | dose: 400.0 mg/kg/injection, schedule: Q01DX001 (ip), vehicle: Klucel (hydroxypropylcellulose) (HPC) 87 % of control

NN1C(=O)Cc2ccccc2C1=O
inactive: [5] 102 % of control | [6] 101 % of control | [1] 93 % of control | dose: 200.0 mg/kg/injection, schedule: Q04DX003 (ip), vehicle: saline with Tween-80 101 % of control | [7] 96 % of control | dose: 400.0 mg/kg/injection, schedule: Q04DX003 (ip), vehicle: saline with Tween-80 116 % of control

CC(CC(=O)OCC(F)(F)C(F)(F)C(F)(F)C(F)F)CC(=O)OCC(F)(F)C(F)(F)C(F)(F)C(F)F
inactive: dose: 50.0 mg/kg/injection, schedule: Q01DX001 (ip), vehicle: carboxymethylcellulose (CMC) 96 % of control | [5] 100 % of control | [1] 96 % of control | [7] 91 % of control

CCOC(=O)C1(CC)CNCC(CC)(C(=O)OCC)C1=O (stereo not given)
inactive: [8] 103 % of control | [9] 104 % of control | [10] 101 % of control | [11] 97 % of control

CCCC(=O)CC(=O)C(F)(F)F.CCCC(=O)CC(=O)C(F)(F)F.CCCC(=O)CC(=O)C(F)(F)F.[Er]
inactive: dose: 100.0 mg/kg/injection, schedule: Q01DX009 (ip), vehicle: other 104 % of control | dose: 100.0 mg/kg/injection, schedule: Q04DX003 (ip), vehicle: other 110 % of control | dose: 200.0 mg/kg/injection, schedule: Q01DX009 (ip), vehicle: other 106 % of control | dose: 200.0 mg/kg/injection, schedule: Q04DX003 (ip), vehicle: other 107 % of control | dose: 400.0 mg/kg/injection, schedule: Q04DX003 (ip), vehicle: other 108 % of control

O=C(O)/C=C/c1ccccc1Br
inactive: [8] 97 % of control | [9] 91 % of control | dose: 100.0 mg/kg/injection, schedule: Q01DX009 (ip), vehicle: Klucel (hydroxypropylcellulose) (HPC) 102 % of control | [10] 94 % of control | dose: 200.0 mg/kg/injection, schedule: Q01DX009 (ip), vehicle: Klucel (hydroxypropylcellulose) (HPC) 100 % of control | [11] 97 % of control | dose: 400.0 mg/kg/injection, schedule: Q01DX009 (ip), vehicle: Klucel (hydroxypropylcellulose) (HPC) 100 % of control

O=C(C(=O)N1CC1)c1c[nH]c2ccccc12
inactive: [12] 95 % of control | [13] 91 % of control | [6] 95 % of control

CC(C)(C)OC(=O)NCCCCC(NC(=O)CNC(=O)C(CSC(c1ccccc1)(c1ccccc1)c1ccccc1)NC(=O)OC(C)(C)C)C(=O)O (stereo not given) (Boc-Cys(Trt)-Gly-Lys(Boc)-OH; configuration not given here)
inactive: [12] 96 % of control | [13] 98 % of control | [6] 94 % of control

O=C(NCCO)C(=O)NCCO
inactive: dose: 100.0 mg/kg/injection, schedule: Q04DX002 (ip), vehicle: saline 115 % of control | dose: 200.0 mg/kg/injection, schedule: Q04DX002 (ip), vehicle: saline 110 % of control | dose: 400.0 mg/kg/injection, schedule: Q04DX002 (ip), vehicle: saline 96 % of control

CCCCNC(C)(C)C(SSSC(c1cccs1)C(C)(C)NCCCC)c1cccs1 (stereo not given)
inactive: dose: 100.0 mg/kg/injection, schedule: Q04DX003 (ip), vehicle: saline sonified 97 % of control | dose: 200.0 mg/kg/injection, schedule: Q04DX003 (ip), vehicle: saline sonified 107 % of control | dose: 400.0 mg/kg/injection, schedule: Q04DX003 (ip), vehicle: saline sonified 100 % of control
